Literature values as cited in patent US9579299B2, “CNS pharmaceutical compositions and methods of use” (TARGIA PHARMACEUTICALS, priority 2008, dated 2017).

tested on: not given; details: parent drug; cited from earlier work

Q: With `O=C1CN=C(c2ccccc2Cl)c2cc([N+](=O)[O-])ccc2N1` [Clonazepam] as the molecule, how does the “Elimination Half-Life” value read?
A: 18 to 50 h

Q: With `Fc1ccccc1C1=NCC(=S)N(CC(F)(F)F)c2ccc(Cl)cc21` [Quazepam] as the molecule, how does the “Elimination Half-Life” value read?
A: 25 to 100 h

Q: For `O=C1CN=C(c2ccccn2)c2cc(Br)ccc2N1` [Bromazepam], which “Elimination Half-Life” value is on record?
A: 10 to 20 h

Q: Which “Elimination Half-Life” value does the source give for `CNC1=Nc2ccc(Cl)cc2C(c2ccccc2)=[N+]([O-])C1` [Chlordiazepoxide] here?
A: 5 to 30 h

Q: With `CN1C(=O)CN=C(C2=CCCCC2)c2cc(Cl)ccc21` [Tetrazepam] as the molecule, how does the “Elimination Half-Life” value read?
A: 3 to 26 h

Q: Which “Elimination Half-Life” value does the source give for `CN1CCN(/C=C2\N=C3CN=C(c4ccccc4Cl)c4cc([N+](=O)[O-])ccc4N3C2=O)CC1` [Loprazolam] here?
A: 6 to 12 h

Q: Which “Elimination Half-Life” value does the source give for `CN1CCN=C(c2ccccc2)c2cc(Cl)ccc21` [Medazepam] here?
A: 36 to 200 h

Q: For `Clc1ccc2c(c1)C(c1ccccc1)=NCc1nncn1-2` [Estazolam], which “Elimination Half-Life” value is on record?
A: 10 to 24 h

Q: Which “Elimination Half-Life” value does the source give for `CN1C(=O)CC(=O)N(c2ccccc2)c2cc(Cl)ccc21` [Clobazam] here?
A: 12 to 60 h

Q: With `CN1C(=O)C(O)N=C(c2ccccc2Cl)c2cc(Cl)ccc21` (stereo not shown) [Lormetazepam] as the molecule, how does the “Elimination Half-Life” value read?
A: 10 to 12 h

Q: For `O=C1CN=C(c2ccccc2)c2cc([N+](=O)[O-])ccc2N1` [Nitrazepam], which “Elimination Half-Life” value is on record?
A: 15 to 38 h

Q: For `CC1=CC(=O)N2CC(=O)N(C)c3ccc(Cl)cc3C2(c2ccccc2)O1` (stereo not shown) [Ketazolam], which “Elimination Half-Life” value is on record?
A: 2 h

Q: Which “Elimination Half-Life” value does the source give for `N#CCCN1C(=O)C(O)N=C(c2ccccc2F)c2cc(Cl)ccc21` (stereo not shown) [Cinolazepam] here?
A: 9 h

tested on: treated patients; details: anti-epileptics; cited from earlier work

Q: For `CC[C@@H](C(N)=O)N1CCCC1=O` [Levetiracetam], which Psychiatric side-effects is on record?
A: Irritability, sedation and psychosis

tested on: not given; details: CNS active agent; cited from earlier work

Q: Which results are given for `O=C1CN=C(c2ccccc2Cl)c2cc([N+](=O)[O-])ccc2N1` [Clonazepam]?
A: Tmax: 4 h; bioactivity: 90%

Q: For `CCC1(c2ccccc2)C(=O)NC(=O)NC1=O` [Phenobarbital, 5-ethyl-5-phenyl barbituric acid], which Tmax is on record?
A: 2 h

Q: For `Cc1cc2c(s1)Nc1ccccc1N=C2N1CCN(C)CC1` [Olanzapine], which Tmax is on record?
A: 5 to 8 h

Q: And the bioactivity?
A: 40%

Q: With `C=CC(N)CCC(=O)O` (stereo not shown) [Vigabatrin (GVG), Gamma vinyl GABA] as the molecule, how does the Tmax read?
A: 0.4 to 1 h

Q: With `CN1C(=O)CN=C(c2ccccc2)c2cc(Cl)ccc21` [Diazepam] as the molecule, how does the bioactivity read?
A: 97%

Q: For `CN1CCN(C2=Nc3cc(Cl)ccc3Nc3ccccc32)CC1` [Clozapine], which Tmax is on record?
A: 2.5 h

same assay, conditions: selected neuromodulators; cited from earlier work

Q: With `COc1ccc(OC)c(C(O)CNC(=O)CN)c1` (stereo not shown) [Mitodrin] as the molecule, how does the Tmax read?
A: 0.25 to 0.5 h

Q: Which Tmax does the source give for `CN[C@@H](C)[C@@H](O)c1ccccc1` [Pseudoephedrine] here?
A: 0.5 to 1 h

tested on: not given; details: in vivo; cited from earlier work

Q: For `COCCc1ccc(OCC(O)CNC(C)C)cc1` (stereo not shown) [Metoprolol], which Half-life is on record?
A: 3 to 7 h

Q: What about the Tmax of the same molecule?
A: (fast) up to 1 h

Q: For `NCC(CC(=O)O)c1ccc(Cl)cc1` (stereo not shown) [Baclofen], which Half-life is on record?
A: 1.5 to 4 h

Q: And the Tmax?
A: 0.5 to 1 h

Q: With `COc1ccccc1OCC(O)COC(N)=O` (stereo not shown) [Methocarbamol] as the molecule, how does the Half-life read?
A: 1 to 2 h

Q: And the Tmax?
A: 1 to 2 h

Q: Which Half-life does the source give for `OC(CCN1CCCCC1)(c1ccccc1)C1CC2C=CC1C2` (stereo not shown) [Biperiden] here?
A: 18 to 24 h

Q: What about the Tmax of the same molecule?
A: 1.5 h

Q: With `COc1ccc2c(c1)N(C[C@H](C)CN(C)C)c1ccccc1S2` [Methotrimeprazine] as the molecule, how does the Half-life read?
A: 20 h

Q: And the Tmax?
A: 1 to 4 h

Q: Which Half-life does the source give for `CCOC(=O)C1(c2ccccc2)CCN(C)CC1` [Meperidine(Pethidine), Meperidine] here?
A: 3 to 5 h

Q: Which results are given for `Cc1ccccc1C(OCCN(C)C)c1ccccc1` (stereo not shown) [Orphenadrine]?
A: Half-life: 13 to 20 h; Tmax: 2 h

Q: Which Half-life does the source give for `Fc1ccc(C(c2ccc(F)cc2)N2CCN(C/C=C/c3ccccc3)CC2)cc1` [Flunarizine] here?
A: 456 h

Q: And the Tmax?
A: 1 h

Q: Which Half-life does the source give for `CCN(CC)C(=O)N[C@H]1C=C2c3cccc4[nH]cc(c34)C[C@H]2N(C)C1` [Lisuride] here?
A: 2 h

Q: And the Tmax?
A: 1.1 to 1.3 h

Q: Which Tmax does the source give for `CCC(=O)C(CC(C)N(C)C)(c1ccccc1)c1ccccc1` (stereo not shown) [Methadone] here?
A: 1 to 7.5 h

same assay, conditions: in vivo; listed as Robaxin; cited from earlier work

Q: What does the source list for `COc1ccccc1OCC(O)COC(N)=O` (stereo not shown) [Methocarbamol]?
A: Half-life: 1.14 to 1.24 h; Tmax: 0.5 to 1 h

same assay, conditions: oral; cited from earlier work

Q: With `CCOC(=O)C1(c2ccccc2)CCN(C)CC1` [Meperidine(Pethidine), Meperidine] as the molecule, how does the Tmax read?
A: oral, up to 1.5 h

same assay, conditions: stated in words (injection / IV); cited from earlier work

Q: With `CCOC(=O)C1(c2ccccc2)CCN(C)CC1` [Meperidine(Pethidine), Meperidine] as the molecule, how does the Tmax read?
A: IV, several min
